According to BigSolDB 2.1:

O=C(O)CCCCCCC(=O)O
Settings | solubility (mole fraction)
in THF, 283.15 K | 0.0356
in THF, 289.75 K | 0.0437
in THF, 296.85 K | 0.0546
in THF, 303.75 K | 0.0665
in THF, 310.75 K | 0.0806
in THF, 317.95 K | 0.0982
in THF, 324.95 K | 0.117
in THF, 331.95 K | 0.141
in acetone, 283.15 K | 0.006
in acetone, 289.95 K | 0.00833
in acetone, 296.85 K | 0.0115
in acetone, 303.75 K | 0.0154
in acetone, 310.75 K | 0.0208
in acetone, 317.55 K | 0.0292
in acetone, 322.75 K | 0.035
in ethanol, 283.25 K | 0.0158
in ethanol, 290.35 K | 0.021
in ethanol, 297.05 K | 0.0281
in ethanol, 303.85 K | 0.0374
in ethanol, 310.95 K | 0.0491
in ethanol, 317.85 K | 0.0627
in ethanol, 324.85 K | 0.0795
in ethyl acetate, 283.15 K | 0.00167
in ethyl acetate, 289.95 K | 0.00227
in ethyl acetate, 296.85 K | 0.0031
in ethyl acetate, 303.95 K | 0.00462
in ethyl acetate, 310.95 K | 0.0065
in ethyl acetate, 317.75 K | 0.00902
in ethyl acetate, 324.85 K | 0.0125
in ethyl acetate, 331.75 K | 0.0186
in isopropanol, 283.15 K | 0.0145
in isopropanol, 289.95 K | 0.0198
in isopropanol, 296.95 K | 0.0271
in isopropanol, 303.55 K | 0.0368
in isopropanol, 310.95 K | 0.0486
in isopropanol, 317.95 K | 0.0639
in isopropanol, 324.75 K | 0.0816
in methanol, 283.25 K | 0.0179
in methanol, 290.35 K | 0.0242
in methanol, 297.05 K | 0.0322
in methanol, 303.85 K | 0.0443
in methanol, 310.95 K | 0.0572
in methanol, 317.85 K | 0.0748
in methanol, 324.85 K | 0.0951
in n-propanol, 283.15 K | 0.012
in n-propanol, 289.85 K | 0.017
in n-propanol, 296.75 K | 0.0233
in n-propanol, 303.85 K | 0.0308
in n-propanol, 310.75 K | 0.0422
in n-propanol, 317.75 K | 0.0559
in n-propanol, 325.05 K | 0.0718
in water, 283.25 K | 9.14e-05
in water, 290.25 K | 0.000131
in water, 297.15 K | 0.0002
in water, 303.85 K | 0.000291
in water, 310.85 K | 0.000439
in water, 318.15 K | 0.000662
in water, 325.15 K | 0.00107
in water, 332.45 K | 0.0017
in water, 339.15 K | 0.00265
